Consider eight molecules from patent publication US12188086B2, “Nucleotide analogues and use thereof for nucleic acid sequencing and analysis preliminary class” (The Trustees of Columbia University in the City of New York, priority 2018, dated 2025).

Data set [1] concerns Therminator IX DNA polymerase. The data set can be described thus: Single base extension reaction, checked by MALDI-TOF MS. The arrangement: efficiency of primer strand extension: concentration or dose not given beside the values. The conditions noted are these: for efficiency of primer strand extension: no primer peak is visible. The format is biochemical. On the procedure:
A single base DNA extension reaction (SBE) was performed with 3′-O-SS (DTM)-dTTP-PEG4-Azo-Cy5, using a primer (5′-[…]-3′ [SEQ ID 1]) and a synthetic DNA template (5′-[…]-3′ [SEQ ID 2]) based on a portion of exon 8 of the human p53 gene as follows. The bold letters in the template represent the extension position for the primers. 2 μL of 10× concentrated buffer, 1 μL of primer, E8TT (MW: 5163, 100 μM), 3 μL of Exon 8 template (20 μM), 1 μL of nucleotide (3′-O-t-butyl-SS-dTTP-PEG4-Azo-Cy5, 432 μM), 1 μL of Therminator IX DNA Polymerase, T9 (10 U/λ) and 12 μL of dH2O were combined in a total volume of 20 μL. The reaction consisted of 38 cycles at 65° C. for 30 seconds and 45° C. for 30 seconds. Single base extension was confirmed by MALDI-TOF MS as indicated by the major peak at 6791.8 Da (calc'd, 6782.4 Da) in the spectrum.
Synthesized 3′-O-t-butyl-SS-dATP-PEG4-Azo-Biotin was used to perform a single-base extension reaction. The primer E8AA-6084 (5′-[…]-3′ at 6084 Da), exon 8 template (see sequence above) and Therminator IX DNA polymerase (T9) were added along with the modified nucleotides. In the 3′-O-t-butyl-SS-dATP-PEG4-Azo-Biotin (A7) incorporation reaction, the primer was extended to 7327.4 Da (expected, 7326.3 Da). No primer peak was detected using MALDI TOF MS after 38 cycles of reaction.
Extension reactions consisted of 3 μl template (60 μM), 1 μl primer (100 μM), 2 μl of one of the above ddNTP analogues (100 μM), 2 μl 10× Thermo Pol Buffer, 1 μl Therminator IX DNA polymerase (10 unit/μl) and 11 μl water. Extension was performed in a thermal cycler and consisted of 1 min denaturation at 65° C., followed by 38 cycles of 30 sec at 65° C., 30 sec at 45° C. and 30 sec at 65° C., with a final 3 min extension at 72° C., and storage at 4° C. Desalting was carried out using Oligo Clean & Concentrator (Zymo Research) according to the manufacturer's instructions prior to checking results of polymerase reaction by MALDI-TOF-MS.

Data set [2] is described as follows: Sodium dithionite cleavage of azo linker on single base extended primer (MALDI-TOF MS). The format is physicochemical. The procedure:
The azo cleavage reaction was performed on single base extended primer (E8TT+3′-O-t-butyl-SS-dTMP-PEG4-Azo-Cy5, 6782.4 Da). A 1M stock solution of Na2S2O4 was prepared in 1×PBS buffer (pH 7.4). 1.25 μL Na2S2O4 solution was added to the extended primer solution (20 μL, 32 μM) along with 28.75 μL of 1×PBS buffer. […] Afterwards, reaction mixtures were purified with a ZipTip and concentrated using a Speed Vac. The size of the cleaved extended primer was characterized by MALDI-TOF MS as 6009.44 Da (calc'd: 6008.9 Da).
Single base extended primers (6084ExAA+3′-O-t-butyl-SS-dAMP-PEG4-Azo-Biotin, 7327.4 Da) was treated with 25 mM sodium dithionite in 1×PBS buffer. […] The azo cleaved product reflects a molecular weight of 6951.1 Da which agrees with the expected value of 6952.3 Da. […]

A short description of data set [3]: Compatibility test: stability of SS linker on sodium dithionite treatment (MALDI-TOF MS). It is filed as physicochemical. The conditions noted are these: 25 mM Na2S2O4 in PBS pH 7.4, 30 min at 37° C. The procedure: Disclosed herein are the results of a compatibility test was performed using 3′-O-SS-dATP-SS-Rox (cal: MW1344.36 Da, observed 1345.61) as model compound. 2 μl of 0.1 mM 3′-O-SS-dATP-SS-Rox was treated with 100 μL of freshly made 25 mM Na2S2O4 (in PBS buffer [pH 7.4]) and the mixture was kept shaking for 30 min at 37° C. Then desalination was carried out with a ZipTip, and the product was subjected to MALDI TOF MS measurement. […] The result proves that the disulfide linker is stable at much higher concentration of sodium dithionite and at longer reaction time than necessary to cleave the Azo linker.
An additional compatibility test was conducted on 3′-SS-dC extended ssDNA. The single base extension experiment was carried out by adding 20 pmol Exon 8 template, 60 pmol primer (M.W. 5144), 2 mM MnCl2 and 2 U Therminator 9 polymerase in 20 μl 1×Pol buffer in each PCR reaction tube which were subject to PCR thermocycles (65° C. for 30″ 45° C. for 30″, 38 cycles). After completion of the incorporation, NaS2O4 solution was added to the reaction tube to a final concentration of 20 mM and incubated at room temperature for 40 min. Then the reaction mixture was treated with a Clean & Concentrator column to purify ssDNA. The resulting oligonucleotide was subject to MALDI-TOF MS measurement. […]

A short description of data set [4]: THP cleavage of SS linker / 3′ blocking group on extended primer (MALDI-TOF MS). It is filed as physicochemical. The procedure:
Tris(hydroxypropyl)phosphine (THP) (1 μL, 1 mM) was added to the azo cleaved extended primer (9 μL, 15 μM) (E8TT+3′-O-t-butyl-SS-dTMP-PEG4-aniline, 6009.44 Da). […] After the spin column-based nucleic acid purification (ZymoPURE Oligo Clean & Concentrator), the product was confirmed by MALDI-TOF MS: 5881.4 Da (calc'd: 5874.9 Da). […]

The next data set addresses Thermo Sequenase (Thermus aquaticus, UniProt P19821, F272M/F667Y). The conditions noted are these: read-out: concentration that produces the half maximum fluorescent intensity; 0.3 μM single fluorescein labeled self-primed template, 10 pH dCTP, ddCTP 0 to 10 μM.
Where [5] appears, read: 25 mM sodium dithionite at 45° C. for 1 minute.

Thermo Sequenase, sequence (P19821 272-832 F272M/F667Y): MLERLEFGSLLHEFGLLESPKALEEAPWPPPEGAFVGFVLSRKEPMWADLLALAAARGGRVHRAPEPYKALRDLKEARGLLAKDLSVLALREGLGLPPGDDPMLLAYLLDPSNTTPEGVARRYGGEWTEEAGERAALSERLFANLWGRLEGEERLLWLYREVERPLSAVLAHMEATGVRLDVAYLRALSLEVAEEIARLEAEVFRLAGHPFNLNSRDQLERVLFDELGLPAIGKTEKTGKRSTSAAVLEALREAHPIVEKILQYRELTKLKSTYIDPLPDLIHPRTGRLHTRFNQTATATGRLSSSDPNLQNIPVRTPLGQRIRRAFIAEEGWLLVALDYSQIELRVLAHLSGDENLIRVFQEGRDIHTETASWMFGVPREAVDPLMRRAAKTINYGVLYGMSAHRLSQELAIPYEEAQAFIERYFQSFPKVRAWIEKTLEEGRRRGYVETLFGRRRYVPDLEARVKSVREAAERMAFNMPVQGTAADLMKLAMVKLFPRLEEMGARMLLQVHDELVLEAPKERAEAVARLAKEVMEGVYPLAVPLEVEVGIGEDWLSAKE
Method for Thermo Sequenase: A. Varying concentrations of ddCTP (0 to 10 μM) were added to solutions containing Thermo Sequenase, 0.3 μM single fluorescein labeled self-primed template and 10 pH dCTP. […] B. The same experiments performed with the tagged ddCTP (0 to 5 μM) shown in FIG. 79 in the presence of the same template and 5 μM dCTP.
Extension reactions were prepared with the primer, Thermo Sequenase, dCTP and various dilutions of ddCTP or tagged ddCTP. First, a series of SBE reactions were carried out with final ddCTP concentrations ranging from 0 to 10 μM at a concentration of dCTP of 10 μM and 0.3 pH of labeled primer. Under these conditions, the primer is extended by the incorporation of dCTP until it encounters ddCTP incorporation. […] Fluorescence intensity was measured on a SpectraMax3 Microplate Reader (Molecular Devices, LLC).

With ddATP-7-Azo-Biotin, the “efficiency of primer strand extension” value in data set [1] is reported as roughly 100%. In addition, the “cleavage of azo linker on extended primer” value (from here on “cleavage of azo linker”) in data set [2] (setting [5]) is reported as “complete cleavage”.
On to 3′-O-SS-dATP-SS-Rox, for which the “integrity in the presence of Na2S2O4” value in data set [3] was “no cleavage or degradation was observed”.
Regarding “3′-O-t-Butyl-SS(DTM)-dTTP-PEG4-Azo-Cy5 [3′-O-t-butyl-SS-dTTP-PEG4-Azo-Cy5]”, in data set [1] (38 cycles at 65° C. for 30 seconds and 45° C. for 30 seconds, no primer peak observed), the incorporation rate came to 100%. The “cleavage of azo linker” value in data set [2] (25 mM sodium dithionite at 37° C. for 20 minutes) is given as “complete cleavage”. For the same molecule, the “removal of 3′ blocking group” value in data set [4] (1 mM THP for 5 minutes at 65° C.) is on record as “removed the blocking group with high efficiency”.
Regarding ddCTP-5-SS-Biotin, the “efficiency of primer strand extension” value in data set [1] is given as roughly 100%. The “cleavage of SS linker on extended primer” value in data set [4] (THP) is “complete cleavage”.
Turning to `Nc1ccn([C@H]2CC[C@@H](COP(=O)(O)OP(=O)(O)OP(=O)(O)O)O2)c(=O)n1` [ddCTP], at Thermo Sequenase, the IC50 is roughly 500 nM.
Regarding “3′-O-t-Butyl-SS(DTM)-dATP-PEG4-Azo-Biotin [3′-O-t-butyl-SS-dATP-PEG4-Azo-Biotin]”, the “efficiency of primer strand extension” value in data set [1] is reported as roughly 100%. Besides, the “cleavage of azo linker” value in data set [2] (25 mM sodium dithionite in 1×PBS, 37° C. for 10 min) is “can be cleaved efficiently”.
For the molecule ddTTP-5-Azo-Cy5, the “efficiency of primer strand extension” value in data set [1] was roughly 100%. The “cleavage of azo linker” value in data set [2] (setting [5]) is on record as “complete cleavage”.
In the case of ddGTP-7-SS-Cy5, in data set [1], the “efficiency of primer strand extension” value is listed as roughly 100%.
